Data from patent US11708360B2, “N-substituted-dioxocyclobutenylamino-3-hydroxy-picolinamides useful as CCR6 inhibitors” (Pfizer Inc., priority 2018, dated 2023).
Like-named read-outs stand apart in the source and are kept apart here.

Experiments:
[1] = molecular target: T1, CXCR2 (Homo sapiens, UniProt P25025); parameters: host or cells: Path-Hunter HEK293 cells; conditions: Table 16; data disclosed in WO 2013/061005; β-arrestin recruitment, CXCL8, Path-Hunter HEK293 cells; cited from earlier work
T1 sequence (P25025 1-360): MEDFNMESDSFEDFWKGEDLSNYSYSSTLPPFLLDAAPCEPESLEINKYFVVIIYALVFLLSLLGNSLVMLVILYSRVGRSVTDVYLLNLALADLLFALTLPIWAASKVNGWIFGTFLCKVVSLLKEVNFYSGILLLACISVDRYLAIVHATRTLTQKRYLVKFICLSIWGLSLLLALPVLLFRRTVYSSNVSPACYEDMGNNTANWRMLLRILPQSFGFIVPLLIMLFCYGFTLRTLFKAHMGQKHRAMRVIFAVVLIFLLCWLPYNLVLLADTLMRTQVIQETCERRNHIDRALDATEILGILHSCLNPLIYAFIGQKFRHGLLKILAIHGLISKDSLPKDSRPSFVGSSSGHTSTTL

[2] = molecular target: T1, CXCR2; experiment: Human Neutrophil Chemotaxis Assay; format: cell-based; parameters: Human neutrophils were purified from freshly drawn human whole blood; endogenous in cells; host or cells: primary human neutrophils from fresh whole blood
Experimental: After 30 min, the labeled neutrophils were washed twice in chemotaxis buffer, resuspended as before and used immediately. For the assay, test compounds were tested in a dose-response format to determine IC50. Labeled neutrophils (50 μL) were pre-incubated with diluted test compound (50 μL) for 30 min in a 96-well plate (Greiner). Next, 100 μL of diluted compound was mixed with 100 μL of GROα (Peprotech #300-11, 2 nM) in the bottom portion of the chemotaxis chamber. The top portion (insert) of the chemotaxis system containing the FluoroBlok porous membrane was then assembled together. 50 μL of the pre-incubated neutrophils were added to the FluoroBlok insert (top portion) and chemotaxis measured by the neutrophils ability to migrate through the membrane towards the specific CXCR2 ligand, GROα.
IC50 values for compounds of the present invention (Table 12) were determined by the non-linear regression analysis of dose response curves.

[3] = molecular target: T2, CCR6 (Homo sapiens, UniProt P51684); experiment: CCR6+ T Cell Chemotaxis Assay; format: cell-based; conditions: for T Cell Chemotaxis Selectivity: Table 13, T cell chemotaxis compared to neutrophil chemotaxis; for T Cell Chemotaxis Selectivity / R = H, T Cell Chemotaxis Selectivity: NS = not selective for T cell chemotaxis compared to neutrophil chemotaxis
T2 construct: Human CD4+CCR6+CXCR3-T cells were isolated from leukopak from healthy donors; endogenous in cells
T2 sequence (P51684 1-374): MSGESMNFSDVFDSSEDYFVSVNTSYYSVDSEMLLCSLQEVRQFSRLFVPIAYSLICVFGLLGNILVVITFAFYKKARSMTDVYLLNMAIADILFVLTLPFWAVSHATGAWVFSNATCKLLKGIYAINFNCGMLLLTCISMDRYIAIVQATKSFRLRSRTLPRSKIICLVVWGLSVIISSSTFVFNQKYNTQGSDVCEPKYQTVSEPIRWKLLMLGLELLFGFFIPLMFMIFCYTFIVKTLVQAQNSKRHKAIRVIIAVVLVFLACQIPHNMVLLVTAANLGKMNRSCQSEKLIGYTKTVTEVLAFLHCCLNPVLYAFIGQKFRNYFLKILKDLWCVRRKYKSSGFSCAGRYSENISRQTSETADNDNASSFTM
From the text: Human CD4+CCR6+CXCR3-T cells were isolated from leukopak from healthy donors using EasySep™ Human Th17 Cell Enrichment Kit. […] Day 4 post activation, Dynabeads were removed from the culture. The activated T cells were maintained at 1-2×10^6 cells/mL for 15 days by feeding fresh growth media when needed.
For IC50 determination, the top and bottom of the chemotaxis chamber contained the same concentration of compound. DMSO was kept constant at 0.1% (v/v) in all wells. The final concentration of CCL20 (Peprotech 300-29A) in the bottom chamber is 0.5 nM. The fully assembled chemotaxis plate was placed in a cell culture incubator at 37° C., 5% CO2 for 1 h. After incubation, the top filter was removed, followed by a quick freeze of the bottom chamber at −80° C. for 1 h. The migrated cells in the bottom chamber were stained with CyQUANT dye (Life Technologies, C7026) for cell number determination.
IC50 values for compounds of the present invention (Table 11) were determined by the non-linear regression analysis of dose response curves.

[4] = Table 17, WO 2013/061005 comparator compounds, read-out: IC50 (nM) CXCR2 Neutrophil, GROα Chemotaxis
[5] = Table 11, human CD4+CCR6+CXCR3- T cells, CCL20 0.5 nM in bottom chamber, 1 h at 37° C., read-out: IC50
[6] = Table 12, human neutrophils migrating towards the CXCR2 ligand GROα, read-out: IC50
[7] = Table 14, R = H, read-out: R = H, IC50 (nM) CCR6 T cell, CCL20 Chemotaxis
[8] = Table 14, R = H, read-out: R = H, IC50 (nM) CXCR2 Neutrophil, GROα Chemotaxis

Cc1ccc([C@H](Nc2c(Nc3ccc(Cl)c(S(=O)(=O)N(C)C)c3O)c(=O)c2=O)C2(C)COC2)o1 [Example 22 (WO 2013/061005), reference compound]
IC50 [1]: 31 nM
IC50 [2, 4]: 35.2 nM

CC(C)N(C)C(=O)c1nccc(Nc2c(N[C@@H](c3nn(C)cc3C#N)C3(C)CCCC3)c(=O)c2=O)c1O [Example 31, (R)-4-((2-(((4-cyano-1-methyl-1H-pyrazol-3-yl)(1-methylcyclopentyl)methyl)amino)-3,4-dioxocyclobut-1-en-1-yl)amino)-3-hydroxy-N-isopropyl-N-methylpicolinamide]
IC50 [3, 5]: 45.4 nM
T Cell Chemotaxis Selectivity [3]: 60
IC50 [2, 6]: 2750 nM

Cc1nc([C@H](Nc2c(Nc3ccnc(C(=O)N(C)C)c3O)c(=O)c2=O)C2(C)CCCC2)c(C)s1 [Example 32, (R)-4-((2-(((2,5-Dimethylthiazol-4-yl)(1-methylcyclopentyl)-methyl)amino)-3,4-dioxocyclobut-1-en-1-yl)amino)-3-hydroxy-N,N-dimethylpicolinamide]
IC50 [3, 5]: 2.7 nM
T Cell Chemotaxis Selectivity [3]: 123
R = CH3, T Cell Chemotaxis Selectivity ([3]; Table 14, R = CH3): 123
IC50 ([3]; Table 14, R = CH3, read-out: R = CH3, IC50 (nM) CCR6 T cell, CCL20 Chemotaxis): 2.7 nM
IC50 [2, 6]: 332 nM
IC50 ([2]; Table 14, R = CH3, read-out: R = CH3, IC50 (nM) CXCR2 Neutrophil, GROα Chemotaxis): 332 nM

COc1sc(C)nc1[C@H](Nc1c(Nc2ccnc(C(=O)N(C)C)c2O)c(=O)c1=O)C1(C)CCCC1 [Example 33, (R)-3-Hydroxy-4-((2-(((5-methoxy-2-methylthiazol-4-yl)(1-methylcyclopentyl)methyl)amino)-3,4-dioxocyclobut-1-en-1-yl)amino)-N,N-dimethylpicolinamide]
IC50 [3, 5]: 4.4 nM
T Cell Chemotaxis Selectivity [3]: 16
IC50 [2, 6]: 69.9 nM

CCc1cn(C)nc1[C@H](Nc1c(Nc2ccnc(C(=O)N(C)C)c2O)c(=O)c1=O)[C@]1(C)CC(F)(F)CO1 [Example 37, 4-((2-(((S)-((S)-4,4-Difluoro-2-methyltetrahydrofuran-2-yl) (4-ethyl-1-methyl-1H-pyrazol-3-yl)methyl)amino)-3,4-dioxocyclobut-1-en-1-yl)amino)-3-hydroxy-N,N-dimethylpicolinamide]
IC50 [3, 5]: 5.2 nM
T Cell Chemotaxis Selectivity [3]: 698
IC50 [2, 6]: 3630 nM

Cc1nc([C@H](Nc2c(Nc3ccnc(C(=O)N(C)C)c3O)c(=O)c2=O)[C@]2(C)CC(F)(F)CO2)c(C)s1 [Example 38, 4-((2-(((S)-((S)-4,4-Difluoro-2-methyltetrahydrofuran-2-yl) (2,5-dimethylthiazol-4-yl)methyl)amino)-3,4-dioxocyclobut-1-en-1-yl)amino)-3-hydroxy-N,N-dimethylpicolinamide]
IC50 [3, 5]: 12.6 nM
T Cell Chemotaxis Selectivity [3]: 274
IC50 [2, 6]: 3460 nM

Cc1ccc([C@H](Nc2c(Nc3ccc(Cl)c(C(=O)N4CCN(C)CC4)c3O)c(=O)c2=O)C2(C)COC2)o1 [Example 53, reference compound]
IC50 [1]: 30 nM
IC50 [2, 4]: 1140 nM

CC[C@@H](Nc1c(Nc2ccnc(C(=O)N(C)C)c2O)c(=O)c1=O)c1cccc(C2CC2)c1 [Example 120, reference compound]
IC50 ([3]; Table 15, WO 2010/131145 comparator compounds, read-out: IC50 (nM) CCR6 T cell, CCL20 Chemotaxis): 388 nM
IC50 ([2]; Table 15, WO 2010/131145 comparator compounds, read-out: IC50 (nM) CXCR2 Neutrophil, GROα Chemotaxis): 5.7 nM

CN(C)C(=O)c1nccc(Nc2c(NC(c3ccn(C)n3)C3(C)CCCC3)c(=O)c2=O)c1O (centres unmarked) [drawing 179 (R = H), reference compound]
R = H, T Cell Chemotaxis Selectivity ([3]; Table 14, R = H): 2.2
IC50 [3, 7]: 19.2 nM
IC50 [2, 8]: 42.1 nM

Cc1nc([C@H](Nc2c(Nc3ccnc(C(=O)N(C)C)c3O)c(=O)c2=O)C2(C)CCCC2)cs1 [drawing 180 (R = H), reference compound]
R = H, T Cell Chemotaxis Selectivity ([3]; Table 14, R = H): 10.8
IC50 [3, 7]: 32.1 nM
IC50 [2, 8]: 346 nM

Cc1nc([C@H](Nc2c(Nc3ccnc(C(=O)N(C)C)c3O)c(=O)c2=O)C2(C)CCCC2)co1 [drawing 181 (R = H), reference compound]
IC50 [3, 7]: 64.5 nM
IC50 [2, 8]: 12.2 nM
